Results published in patent publication US4232155A, “Purine compounds” (Bristol-Myers Company, priority 1979, dated 1980).
Converted amounts (≈) assume the structure as drawn.

Experiments:
guinea pig = assay: In vivo bronchodilator and hypotensive activity (intratracheal pressure and arterial blood pressure in anesthetized guinea pig); details: intravenous; for ABP ED20 (dose which reduces arterial blood pressure by 20%): hypotensive activity; for ED50: Cavia porcellus, bronchodilator activity, read-out: ITP ED50 (dose resulting in a 50% decrease in intratracheal pressure); for Ratio ABP/ITP (hypotensive ED20/bronchodilating ED50): separation of bronchodilator from hypotensive effect
Method: The trachea of anesthetized guinea pig was cannulated and the ITP recorded on a polygraph under artificial ventilation. Arterial blood pressure (ABP; reflecting hypotensive activity) was also measured during the experiment. Either intravenous or intraduodenal routes of administration are used. […] The ratio of hypotensive ED20 /brochodilating ED50 reflects an assessment of the separation of desirable brochodilator activity from undesirable cardiovascular (hypotensive) effect in the compounds.

[1] = system: Tracheal chains of guinea pig; assay: In vitro bronchodilator activity, relaxation of tracheal chains (Magnus method); details: Cavia porcellus, relative to 0.1 mcg./ml. isoproterenol, read-out: EC50 (concentration producing a relaxation which is 50% of the maximum response to 0.1 mcg./ml. of isoproterenol)
Method: Tracheal chains of guinea pig were prepared by the method of A. Akcasu, Arch. Int. […] The response to each test compound was recorded by the Magnus method and expressed as a percentage of the maximum response obtained with 0.1 mcg./ml. of isoproterenol prior to each experiment.

SMILES | EC50 [1] | ABP ED20 (dose which reduces arterial blood pressure by 20%) (guinea pig) | ED50 (guinea pig) | Ratio ABP/ITP (hypotensive ED20/bronchodilating ED50) (guinea pig)
Cn1c(=O)c2[nH]cnc2n(C)c1=O [Aminophylline, reference compound] |  | 1.4 mg/kg |  | 
Nc1nc(NC2CCCCC2)nc2c1ncn2C1C=CCCC1 (centres unmarked) [Example 2, 9-(2-Cyclohexenyl)-2-cyclohexylamino-9H-adenine] | 0.24 µg/mL (≈ 0.768 µM) | 2.4 mg/kg | > 3 mg/kg | < 0.8
Nc1nc(NC2CCCCC2)nc2c1ncn2C1CCCCC1 [Example 4, 9-Cyclohexyl-2-cyclohexylamino-9H-adenine] | 0.21 µg/mL (≈ 0.668 µM) | > 3 mg/kg | 1.5 mg/kg | > 2

Further lines, with some results ahead:

EC50 [1] | SMILES | ABP ED20 (dose which reduces arterial blood pressure by 20%) (guinea pig) | ED50 (guinea pig) | Ratio ABP/ITP (hypotensive ED20/bronchodilating ED50) (guinea pig)
0.47 µg/mL (≈ 1.73 µM) | CCCNc1nc(N)c2ncn(C3C=CCCC3)c2n1 (centres unmarked) [Example 1, 9-(2-Cyclohexenyl)-2-n-propylamino-9H-adenine] | > 3 mg/kg | 1.4 mg/kg | > 2.1
0.75 µg/mL (≈ 2.73 µM) | CCCNc1nc(N)c2ncn(C3CCCCC3)c2n1 [Example 3, 9-Cyclohexyl-2-n-propylamino-9H-adenine] | 2.8 mg/kg | 0.49 mg/kg | 5.7
